Experimental data taken from patent US11439655B2, “Compounds for use in wound healing and angiogenesis” (UNIVERSITY OF SOUTH CAROLINA, priority 2017, dated 2022).

Key:
NHDFs = test: In vitro scratch assay (simulated wound closure, cell migration); assay type: cell-based, human; conditions: for time of wound closure of fibroblast compared to the control (growth media): after multiple different time intervals
Experimental: (§1) In Vitro Scratch Assay Cell migration was assessed through making a scratch on confluent monolayers of NHDFs and NHEKs. A total of 15×10^4 cells per well were seeded on a 24 well plate and left overnight to reach confluency. The cell layer was then scraped using a 200 μl pipet tip and any cell debris was washed away with PBS. The samples were supplemented with different concentration of the compounds of interest in growth media and incubated at 37° C. and 5% CO2 for 20 hours. Images were taken every 4 hours using a phase contrast Nikon Eclipse Ti-E inverted microscope. Quantification of percent wound healing was performed by measuring the gap distance using the following formula, [formula] where Wn is the width of gap after every 4 hours and W0 is the initial width zero right after forming a scratch. Capillary Tube Formation

NHEKs = test: as above; assay type: cell-based, human; conditions: for NHEK gap closure / level of wound closure vs control: compounds 10 and 20 μg/ml, extract 50 μg/ml, over 20 h, control growth media; for time of wound closure of keratinocyte compared to the control (growth media): after multiple different time intervals
Experimental: as §1

HUVECs = test: Capillary tube formation on matrigel; assay type: cell-based, human; conditions: 10 and 20 μg/ml
Experimental: [formula] where Wn is the width of gap after every 4 hours and W0 is the initial width zero right after forming a scratch. Capillary Tube Formation Matrigel kept in a −20° C. freezer and thawed on ice overnight in a 4° C. refrigerator. A total of 50 μl of thawed matrigel was added to each well of pre-chilled 96-well plate and then incubated for 30 min at 37° C. to form a gel. Next, 100 μl of a HUVEC cell suspension (passage 2-6) in conditioned media (20000 cell/well) including the compounds of this invention was added to gel and incubated at 37° C. for 8 hours. The number of junctions in tubes was examined using a phase contrast inverted microscope (Invitrogen EVOS FL Auto Cell Imaging) and compared to the conditions with no compound (negative control).

[1] = system: Human Umbilical Vein Endothelial Cells (HUVECs); test: Cytotoxicity assay (MTS), cell viability/proliferation; assay type: cell-based; conditions: 24 h exposure, 10, 20, 50 and 100 μg/ml, vs control and DMSO vehicle control
Experimental: (§2) Human Umbilical Vein Endothelial cells (HUVEC), Adult Normal Human Epidermal Keratinocytes (NHEK), Normal Human Dermal fibroblast (NHDF) and related media for cell culture including endothelial basal and growth medium-2 (EBM-2, EGM-2), keratinocyte basal and growth medium-2 (KBM-2, KGM™-2), fibroblast basal and growth medium (FBM, FGM™) were purchased from Lonza. The cell types were selected due to their important physiologic role in early and late stages of wound healing. Cells were incubated at 37° C. and 5% CO2 throughout the examples. Phosphate-Buffered Saline (PBS), [3-(4,5-dimethylthiazol-2-yl)-5-(3-carboxymethoxyphenyl)-2-(4-sulfophenyl)-2H-tetrazolium (MTS) (Promega) colorimetric assay and growth factor reduced matrigel BD (Corning) were from Sigma-Aldrich.
(§3) In order to determine cell viability, HUVECs, NHDFs, and NHEKs were cultured in their growth media to reach 80% confluency. Cells were seeded at the density of 5×10^3 cell per 96 well plate in a total volume of 100 μl in each well. After seeding, the cells were incubated for 24 hours at 37° C. and 5% CO2 to allow for cell attachment. Media was changed and replaced with media supplemented with the desired concentration of the test compounds (10, 20, 50 and 100 μg/ml), being first dissolved at 10 mg/ml in DMSO and subsequently diluted in culture media. The vehicle control was culture medium supplemented with DMSO 0.5% (Macron Fine Chemicals), representing the highest final concentration of DMSO used to dissolve the natural compound. Following 24 hours of incubation, […] and incubated for 2 hours.

[2] = system: Normal Human Dermal Fibroblasts (NHDFs); test: as above; assay type: cell-based; conditions: 24 h exposure, 10, 20, 50 and 100 μg/ml, vs control and DMSO vehicle control
Experimental: as §2, §3

[3] = system: Normal Human Epidermal Keratinocytes (NHEKs); test: as above; assay type: cell-based; conditions: 24 h exposure, 10, 20, 50 and 100 μg/ml, vs control and DMSO vehicle control
Experimental: as §2, §3

| Structure (SMILES) | NHDF gap closure / migration into the scratched gap vs control (NHDFs; NHDFs, compounds 10 and 20 μg/ml, extract 50 μg/ml, over 20 h) | time of wound closure of fibroblast compared to the control (growth media) (NHDFs) | percentage of gap closed (simulated wound closure) (NHEKs; NHEKs, 10 μg/ml, 6 h) | NHEK gap closure / level of wound closure vs control (NHEKs; NHEKs) | NHEK migration rate at higher concentration (NHEKs; NHEKs, higher concentration (20 μg/ml) vs 10 μg/ml) | time of wound closure of keratinocyte compared to the control (growth media) (NHEKs) | capillary tube (tubule) formation, phase contrast microscopy (HUVECs) | toxicity (cell viability, MTS assay) [1] | toxicity (cell viability, MTS assay) [2] | toxicity (cell viability, MTS assay) [3] | NHDF gap closure (NHDFs; NHDFs, 10 μg/ml, all time points up to 20 h) | NHDF wound closure at higher concentration (NHDFs; NHDFs, higher concentration (20 μg/ml), early time points) | number of junctions relative to control groups (HUVECs; 8 h) |
| --- | --- | --- | --- | --- | --- | --- | --- | --- | --- | --- | --- | --- | --- |
| O=C(/C=C/c1ccc(O)c(O)c1)O[C@@H]1C[C@](O)(C(=O)O)C[C@@H](O)[C@H]1O [3-O-caffeoylquinic acid] | delayed effect on NHDF gap closure at 20 h post-seeding | reduced time of wound closure | approximately 40% | highest level of wound closure | did not lead to a faster migration rate | reduced time of wound closure | formation of tubules assembled by the elongation and joining of HUVECs |  |  |  |  |  |  |
| C[C@H]1O[C@@H](Oc2c(-c3cc(O)c(O)c(O)c3)oc3cc(O)cc(O)c3c2=O)[C@@H](O)[C@@H](O)[C@@H]1O [myricetin-3-o-ß-rhamnoside] |  | reduced time of wound closure |  | Neither myricetin-3-o-ß-rhamnoside nor total P. persica extract led to a significantly higher NHEK gap closure than the control |  | reduced time of wound closure | formation of tubules assembled by the elongation and joining of HUVECs | No toxicity was observed | No toxicity was observed | No toxicity was observed | accelerated gap closure at all time points | negative effect on wound closure during early time points | approximately 3 fold |
